Laboratory results from paper PMC2360155, “Novel retinoic acid metabolism blocking agents have potent inhibitory activities on human breast cancer cells and tumour growth” (British Journal of Cancer, 2007).

Legend:
CRABPII = target: T1, CRABPII (Mus musculus, UniProt P22935); assay: CRABP competition binding assay, CRABPII; settings: for IC50: competition with [3H]-all-trans-RA
T1 construct: Wild-type full-length cDNAs for mouse CRABPI and CRABPII were subcloned into the prokaryotic expression vector pRSETB; pRSETB vector fusion leader (purified on Ni-NTA, so a His tag); made in house; host or cells: Escherichia coli BL21(DE3)pLys
T1 sequence (P22935 1-138): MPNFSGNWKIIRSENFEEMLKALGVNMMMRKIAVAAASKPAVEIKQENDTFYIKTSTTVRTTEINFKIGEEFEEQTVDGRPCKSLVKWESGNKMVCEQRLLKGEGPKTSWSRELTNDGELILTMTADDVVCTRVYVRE
Experimental: Wild-type full-length cDNAs for mouse CRABPI and CRABPII were subcloned into the prokaryotic expression vector pRSETB and transformed into Escherichia coli strain BL21(DE3)pLys ([Chen et al, 1995]). Recombinant fusion proteins were prepared essentially as we have described previously using Ni-NTA resin ([Chen et al, 1995]). The binding of each RAMBA to CRABPI and CRABPII was determined by competition binding assays as described previously ([Chen et al, 1995]). […] IC50 values were calculated as described above in the RAR binding studies.

RARβ = target: T2, RARβ (Mus musculus, UniProt P22605); assay: Retinoid receptor competition binding assay, RARβ; settings: competition with 1.0 nM [3H]-all-trans-RA
T2 construct: expressed in transfected cells; host or cells: CV-1 cells
T2 sequence (P22605 1-448 isoform P22605-3): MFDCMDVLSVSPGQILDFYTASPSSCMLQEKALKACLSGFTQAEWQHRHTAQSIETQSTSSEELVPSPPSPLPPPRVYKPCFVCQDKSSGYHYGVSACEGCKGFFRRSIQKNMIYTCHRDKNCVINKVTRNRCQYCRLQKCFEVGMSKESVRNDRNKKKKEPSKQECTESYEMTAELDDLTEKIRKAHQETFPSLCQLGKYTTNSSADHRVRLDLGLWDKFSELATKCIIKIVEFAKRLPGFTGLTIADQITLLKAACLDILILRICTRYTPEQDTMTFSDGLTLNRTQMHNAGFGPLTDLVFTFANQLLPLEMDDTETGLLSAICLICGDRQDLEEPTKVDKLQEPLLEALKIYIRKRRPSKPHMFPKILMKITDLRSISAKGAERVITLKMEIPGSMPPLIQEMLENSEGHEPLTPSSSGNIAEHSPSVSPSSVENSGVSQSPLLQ

CK 8/18 = assay: Western immunoblotting for CK 8/18 in MCF-7 and T47D cells; format: cell-based, human; settings: 6 days; for Effect on expression of CK 8/18 (in words): 5 μM, MCF-7 cells; for Increase in expression of CK 8/18 compared with control: 1 and 5 μM, MCF-7 and T47D cells
Experimental: At the end of the treatment, cells were scrapped and collected by washing with ice-cold PBS in a centrifuge tube. Cells were centrifuged at 2500 r.p.m. for 10 min, the pellet was again washed with ice-cold PBS and centrifuged. The cell pellet was then suspended in chilled cell lysis buffer (0.1 M Tris–HCl, 0.5% Triton X-100, protease inhibitor cocktail) and sonicated on ice for 10–15 s. The homogenate was kept on ice for 30 min and then centrifuged at 13 000 r.p.m. for 30 min. The supernatant was used as cell lysate. The cell lysates were stored at −80°C. Protein concentration of the cell lysates was determined using Bio-Rad protein assay reagents.
Protein lysates from MCF-7 and T47D cells were subjected to sodium dodecyl sulphate–polyacrylamide gel electrophoresis (SDS–PAGE) and immunoblotted for different proteins. Equal amounts of protein (25–50 μg) were subjected to SDS–PAGE at 60 V for 3 h using the mini PROTEAN3 electrophoresis module assembly (Bio-Rad, Hercules, CA, USA), and transferred to nitrocellulose membranes (Hybond ECL, Amersham). Immunodetections were carried out using antibodies against CK 8/18 (1° antibody – 1 : 8000 in 10% milk PBST), E-cadherin (1° antibody – 1 : 1000 in 5% milk in TBST) and ER-α (1° antibody – 1 : 200 in 5% milk PBST) purchased from Santa Cruz Biotechnology Inc. Antibodies against PARP (1° antibody – 1 : 1000 in 5% milk TBST), cyclin- D1 (1° antibody – 1 : 2000 in 10% milk TBST), caspase-9 (1° antibody – 1 : 1000 in 10% milk TBST) and BAD (1° antibody – 1 : 1000 in 5% BSA TBST) were obtained from Cell Signaling Technology. Antibody for β-actin was obtained from Calbiochem (CA, USA). Secondary anti-mouse IgG HRP conjugate antibody was purchased from Calbiochem and Bio-Rad. Secondary anti-rabbit IgG HRP conjugate antibody was bought from Bio-Rad as well as from Kirkegaard and Perry laboratories (Gaithersburg, MD, USA). Immunoreactive bands were visualised using the enhanced chemiluminescence detection reagents and analysis system (Amersham Bioscences) according to the manufacturer's instructions and quantified by densitometry using ImageQuant software version 5.
The effects of these agents on the expression levels of markers associated with differentiation (CK 8/18 and ER-α) were investigated following established procedures ([Jing et al, 1996]; [Korsching et al, 2002]; [Kim and Freeman, 2003]; [Woelfle et al, 2004]). […] At the end of the treatment, cell lysates were prepared and the expression of cytoskeletal proteins CK 8/18 were evaluated by Western immunoblotting. […] Unexpectedly, VN/66-1 and VN/69-1 caused downregulation in the expression of CK 8/18.
Numbers below the blot show fold increase in expression of the protein as analysed by ImageQuant densitometry analysis. […]

MCF-7 cells = test system: MCF-7 cells; set-up: method as in Patel et al. (2004); settings: inhibition of cell proliferation by 50%; ref Patel et al. (2004); read-out: Cellular IC50, MCF-7; cited from earlier work

| Structure (SMILES) | IC50 (CRABPII) | IC50 (RARβ) | Effect on expression of CK 8/18 (in words) (CK 8/18) | IC50 (MCF-7 cells) | Kd (CRABPII; for comparison) | Increase in expression of CK 8/18 compared with control (CK 8/18) |
| --- | --- | --- | --- | --- | --- | --- |
| CC1=C(/C=C/C(C)=C/C=C/C(C)=C\C(=O)Nc2ccc(O)cc2)C(C)(C)CCC1n1ccnc1 (stereo not drawn) [VN/69-1] | > 500 nM | > 1000 nM | downregulation | 609 nM | – | – |
| CC1=C(/C=C/C(C)=C/C=C/C(C)=C/C(=O)O)C(C)(C)CCC1 [ATRA, all-trans-retinoic acid, reference compound] | – | – | – | 585 nM | 60 nM | 2–3 fold |
| CC1=C(/C=C/C(C)=C/C=C/C(C)=C/C(=O)Nc2ccc(O)cc2)C(C)(C)CCC1n1ccnc1 (stereo not drawn) [VN/66-1] | > 500 nM | > 1000 nM | downregulation | 590 nM | – | – |
| CC1=C(/C=C/C(C)=C/C=C/C(C)=C/C(=O)O)C(C)(C)CCC1n1ccnc1 (stereo not drawn) [VN/14-1] | > 500 nM | 200 nM | – | 494 nM | – | 2–3 fold |
